Data published in patent US8927500B2, “Peptidomimetic macrocycles” (Aileron Therapeutics, Inc., priority 2012, dated 2015).
Read-outs that look alike come from different tables or passages of the source. Where a SMILES comes first, the peptide text is derived from it. Bridges are numbered along the chain shown (N, C = ends). [ ]: non-standard residue; d: D form. The star is where a group is joined. Phe(4-guanidino) = N=C(N)Nc1ccc(C[C@H](N)C(=O)O)cc1; pY = N[C@@H](Cc1ccc(OP(=O)(O)O)cc1)C(=O)O; Gla = N[C@@H](CC(C(=O)O)C(=O)O)C(=O)O; Benzoyl(4-F) = O=C(c1ccc(F)cc1)*; R8 = C=CCCCCCC[C@@](C)(N)C(=O)O; Cit = NC(=O)NCCC[C@H](N)C(=O)O; Cba = N[C@@H](CC1CCC1)C(=O)O; S5 = C=CCCC[C@](C)(N)C(=O)O; Aib = CC(C)(N)C(=O)O

How the values were obtained:
MDM2 = MDM2 (Homo sapiens, UniProt Q00987); test: Competitive fluorescence polarization assay for MDM2; assay type: binding; settings: competitive FP assay, MDM2
Sequence of MDM2 (Q00987 1-125): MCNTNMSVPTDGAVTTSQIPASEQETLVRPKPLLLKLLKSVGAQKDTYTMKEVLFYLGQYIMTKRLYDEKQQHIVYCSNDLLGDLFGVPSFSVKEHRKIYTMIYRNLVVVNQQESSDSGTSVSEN

MDMX = molecular target: T1, MDMX (Homo sapiens, UniProt O15151); test: Competitive fluorescence polarization assay for MDMX; assay type: binding; settings: competitive FP assay
T1 sequence (O15151 1-125): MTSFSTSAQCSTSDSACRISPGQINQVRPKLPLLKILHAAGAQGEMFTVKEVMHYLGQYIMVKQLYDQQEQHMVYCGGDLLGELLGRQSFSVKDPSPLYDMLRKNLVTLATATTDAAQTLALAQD

Structure (SMILES) | Ki (MDM2; read-out: Ki (MDM2)) [nM] | Ki (MDMX; read-out: Ki (MDMX)) [nM] | Ki (MDM2; Ki (MDM2)) [nM] | Ki (MDMX; Ki (MDMX)) [nM]
CC(=O)N[C@@H](CC(C)C)C(=O)N[C@H](C(=O)N[C@@H](Cc1ccccc1)C(=O)N[C@]1(C)CCCCCCC=CCCC[C@@](C)(C(=O)N[C@@H](CO)C(=O)O)NC(=O)[C@H](CC2CCC2)NC(=O)[C@H](CCC(N)=O)NC(=O)[C@H](C)NC(=O)[C@H](Cc2c[nH]c3ccccc23)NC(=O)[C@H](Cc2ccc(O)cc2)NC(=O)[C@H](CCC(=O)O)NC1=O)[C@@H](C)O [compound 594] (Ac-LTF[R8]EYWAQ[Cba][S5]S-OH; staple 4-11) | < 10 | < 10 | – | –
CC(C)C[C@H](NC(=O)c1ccc(F)cc1)C(=O)N[C@H](C(=O)N[C@@H](Cc1ccccc1)C(=O)N[C@]1(C)CCCCCCC=CCCC[C@@](C)(C(=O)N[C@@H](C)C(=O)N[C@@H](C)C(=O)N[C@@H](C)C(=O)N[C@@H](C)C(=O)N[C@@H](C)C(=O)N[C@H](C)C(N)=O)NC(=O)[C@H](CC(C)C)NC(=O)[C@H](CCC(N)=O)NC(=O)[C@H](C)NC(=O)[C@H](Cc2c[nH]c3ccccc23)NC(=O)[C@H](Cc2ccc(O)cc2)NC(=O)[C@H](CCC(=O)O)NC1=O)[C@@H](C)O [compound 596] ({Benzoyl(4-F)}-LTF[R8]EYWAQL[S5]AAAAA[dA]-NH2; staple 4-11) | – | – | < 10 | 10 to 100
CC(=O)N[C@@H](CC(C)C)C(=O)N[C@H](C(=O)N[C@@H](Cc1ccccc1)C(=O)N[C@]1(C)CCCCCCC=CCCC[C@@](C)(C(=O)N[C@@H](C)C(=O)N[C@@H](C)C(=O)N[C@@H](C)C(=O)N[C@@H](C)C(=O)N[C@@H](C)C(=O)N[C@H](C)C(N)=O)NC(=O)[C@H](CC(C)C)NC(=O)[C@H](CCC(N)=O)NC(=O)[C@H](C)NC(=O)[C@H](Cc2c[nH]c3ccccc23)NC(=O)[C@H](Cc2ccc(O)cc2)NC(=O)[C@H](CCCNC(=N)N)NC1=O)[C@@H](C)O [compound 598] (Ac-LTF[R8]RYWAQL[S5]AAAAA[dA]-NH2; staple 4-11) | – | – | < 10 | 10 to 100
CC(=O)N[C@@H](CC(C)C)C(=O)N[C@H](C(=O)N[C@@H](Cc1ccccc1)C(=O)N[C@]1(C)CCCCCCC=CCCC[C@@](C)(C(=O)N[C@@H](C)C(=O)N[C@@H](C)C(=O)N[C@@H](C)C(=O)N[C@@H](C)C(=O)N[C@@H](C)C(=O)N[C@H](C)C(N)=O)NC(=O)[C@H](CC(C)C)NC(=O)[C@H](CCC(N)=O)NC(=O)[C@H](C)NC(=O)[C@H](Cc2c[nH]c3ccccc23)NC(=O)[C@H](Cc2ccc(O)cc2)NC(=O)[C@H](CCC(N)=O)NC1=O)[C@@H](C)O [compound 600] (Ac-LTF[R8]QYWAQL[S5]AAAAA[dA]-NH2; staple 4-11) | – | – | < 10 | < 10
CC(=O)N[C@@H](CC(C)C)C(=O)N[C@H](C(=O)N[C@@H](Cc1ccccc1)C(=O)N[C@]1(C)CCCCCCC=CCCC[C@@](C)(C(=O)N[C@@H](C)C(=O)N[C@@H](C)C(=O)N[C@@H](C)C(=O)N[C@@H](C)C(=O)N[C@@H](C)C(=O)N[C@H](C)C(N)=O)NC(=O)[C@H](CC(C)C)NC(=O)[C@H](CCC(N)=O)NC(=O)[C@H](C)NC(=O)[C@H](Cc2c[nH]c3ccccc23)NC(=O)[C@H](Cc2ccc(O)cc2)NC(=O)[C@H](CC(C(=O)O)C(=O)O)NC1=O)[C@@H](C)O [compound 602] (Ac-LTF[R8][Gla]YWAQL[S5]AAAAA[dA]-NH2; staple 4-11) | – | – | < 10 | < 10
CC(=O)N[C@@H](CC(C)C)C(=O)N[C@H](C(=O)N[C@@H](Cc1ccccc1)C(=O)N[C@]1(C)CCCCCCC=CCCC[C@@](C)(C(=O)N[C@@H](C)C(=O)N[C@@H](C)C(=O)N[C@@H](C)C(=O)N[C@@H](C)C(=O)N[C@@H](C)C(=O)N[C@H](C)C(N)=O)NC(=O)[C@H](CC(C)C)NC(=O)[C@H](CCC(N)=O)NC(=O)[C@H](C)NC(=O)[C@H](Cc2c[nH]c3ccccc23)NC(=O)[C@H](Cc2ccc(O)cc2)NC(=O)[C@H](Cc2ccc(NC(=N)N)cc2)NC1=O)[C@@H](C)O [compound 603] (Ac-LTF[R8][Phe(4-guanidino)]YWAQL[S5]AAAAA[dA]-NH2; staple 4-11) | – | – | < 10 | < 10
CC(=O)N[C@@H](CC(C)C)C(=O)N[C@H](C(=O)N[C@@H](Cc1ccccc1)C(=O)N[C@]1(C)CCCCCCC=CCCC[C@@](C)(C(=O)N[C@@H](C)C(=O)N[C@@H](C)C(=O)N[C@@H](C)C(=O)N[C@@H](C)C(=O)N[C@@H](C)C(=O)N[C@H](C)C(N)=O)NC(=O)[C@H](CC(C)C)NC(=O)[C@H](CCC(N)=O)NC(=O)[C@H](C)NC(=O)[C@H](Cc2c[nH]c3ccccc23)NC(=O)[C@H](Cc2ccc(OP(=O)(O)O)cc2)NC(=O)[C@H](CCC(=O)O)NC1=O)[C@@H](C)O [compound 615] (Ac-LTF[R8]E[pY]WAQL[S5]AAAAA[dA]-NH2; staple 4-11) | – | – | < 10 | < 10

Now from value to compound, other results behind:

Ki (MDM2; read-out: Ki (MDM2)) [nM] | Ki (MDMX; read-out: Ki (MDMX)) [nM] | Structure (SMILES) | Ki (MDM2; Ki (MDM2)) [nM] | Ki (MDMX; Ki (MDMX)) [nM]
< 10 | 10 to 100 | CC(=O)N[C@@H](CC(C)C)C(=O)N[C@H](C(=O)N[C@@H](Cc1ccccc1)C(=O)N[C@]1(C)CCCCCCC=CCCC[C@@](C)(C(=O)N[C@@H](C)C(=O)N[C@@H](C)C(=O)N[C@@H](C)C(=O)N[C@H](C)C(N)=O)NC(=O)[C@H](CC(C)C)NC(=O)[C@H](CCC(N)=O)NC(=O)[C@H](C)NC(=O)[C@H](Cc2c[nH]c3ccccc23)NC(=O)[C@H](Cc2ccc(O)cc2)NC(=O)[C@H](CCC(=O)O)NC1=O)[C@@H](C)O [compound 586] (Ac-LTF[R8]EYWAQL[S5]AAA[dA]-NH2; staple 4-11) | – | –
< 10 | < 10 | CC(=O)N[C@@H](CC(C)C)C(=O)N[C@H](C(=O)N[C@@H](Cc1ccccc1)C(=O)N[C@]1(C)CCCCCCC=CCCC[C@@](C)(C(=O)N[C@@H](C)C(=O)N[C@@H](C)C(=O)N[C@H](C)C(N)=O)NC(=O)[C@H](CC(C)C)NC(=O)[C@H](CCC(N)=O)NC(=O)[C@H](C)NC(=O)[C@H](Cc2c[nH]c3ccccc23)NC(=O)[C@H](Cc2ccc(O)cc2)NC(=O)[C@H](CCC(=O)O)NC1=O)[C@@H](C)O [compound 587] (Ac-LTF[R8]EYWAQL[S5]AA[dA]-NH2; staple 4-11) | – | –
< 10 | 10 to 100 | CC(=O)N[C@@H](CC(C)C)C(=O)N[C@H](C(=O)N[C@@H](Cc1ccccc1)C(=O)N[C@]1(C)CCCCCCC=CCCC[C@@](C)(C(=O)N[C@@H](C)C(=O)N[C@@H](C)C(=O)N[C@@H](C)C(=O)N[C@@H](C)C(=O)N[C@@H](C)C(=O)N[C@H](C)C(N)=O)NC(=O)[C@H](CC(C)C)NC(=O)[C@H](CC(C)C)NC(=O)[C@H](C)NC(=O)[C@H](Cc2c[nH]c3ccccc23)NC(=O)[C@H](Cc2ccc(O)cc2)NC(=O)[C@H](CCC(=O)O)NC1=O)[C@@H](C)O [compound 608] (Ac-LTF[R8]EYWALL[S5]AAAAA[dA]-NH2; staple 4-11) | – | –
< 10 | 10 to 100 | CC(=O)N[C@@H](CC(C)C)C(=O)N[C@H](C(=O)N[C@@H](Cc1ccccc1)C(=O)N[C@]1(C)CCCCCCC=CCCC[C@@](C)(C(=O)N[C@@H](C)C(=O)N[C@@H](C)C(=O)N[C@@H](C)C(=O)N[C@@H](C)C(=O)N[C@@H](C)C(=O)N[C@H](C)C(N)=O)NC(=O)[C@H](CC(C)C)NC(=O)C(C)(C)NC(=O)[C@H](C)NC(=O)[C@H](Cc2c[nH]c3ccccc23)NC(=O)[C@H](Cc2ccc(O)cc2)NC(=O)[C@H](CCC(=O)O)NC1=O)[C@@H](C)O [compound 609] (Ac-LTF[R8]EYWA[Aib]L[S5]AAAAA[dA]-NH2; staple 4-11) | – | –
< 10 | 10 to 100 | CC(=O)N[C@@H](CC(C)C)C(=O)N[C@H](C(=O)N[C@@H](Cc1ccccc1)C(=O)N[C@]1(C)CCCCCCC=CCCC[C@@](C)(C(=O)N[C@@H](C)C(=O)N[C@@H](C)C(=O)N[C@@H](C)C(=O)N[C@@H](C)C(=O)N[C@@H](C)C(=O)N[C@H](C)C(N)=O)NC(=O)[C@H](CC(C)C)NC(=O)[C@H](CO)NC(=O)[C@H](C)NC(=O)[C@H](Cc2c[nH]c3ccccc23)NC(=O)[C@H](Cc2ccc(O)cc2)NC(=O)[C@H](CCC(=O)O)NC1=O)[C@@H](C)O [compound 610] (Ac-LTF[R8]EYWASL[S5]AAAAA[dA]-NH2; staple 4-11) | – | –
< 10 | 10 to 100 | CC(=O)N[C@@H](CC(C)C)C(=O)N[C@H](C(=O)N[C@@H](Cc1ccccc1)C(=O)N[C@]1(C)CCCCCCC=CCCC[C@@](C)(C(=O)N[C@@H](C)C(=O)N[C@@H](C)C(=O)N[C@@H](C)C(=O)N[C@@H](C)C(=O)N[C@@H](C)C(=O)N[C@H](C)C(N)=O)NC(=O)[C@H](CC(C)C)NC(=O)[C@H](CC(N)=O)NC(=O)[C@H](C)NC(=O)[C@H](Cc2c[nH]c3ccccc23)NC(=O)[C@H](Cc2ccc(O)cc2)NC(=O)[C@H](CCC(=O)O)NC1=O)[C@@H](C)O [compound 611] (Ac-LTF[R8]EYWANL[S5]AAAAA[dA]-NH2; staple 4-11) | – | –
< 10 | 10 to 100 | CC(=O)N[C@@H](CC(C)C)C(=O)N[C@H](C(=O)N[C@@H](Cc1ccccc1)C(=O)N[C@]1(C)CCCCCCC=CCCC[C@@](C)(C(=O)N[C@@H](C)C(=O)N[C@@H](C)C(=O)N[C@@H](C)C(=O)N[C@@H](C)C(=O)N[C@@H](C)C(=O)N[C@H](C)C(N)=O)NC(=O)[C@H](CC(C)C)NC(=O)[C@H](CCCNC(N)=O)NC(=O)[C@H](C)NC(=O)[C@H](Cc2c[nH]c3ccccc23)NC(=O)[C@H](Cc2ccc(O)cc2)NC(=O)[C@H](CCC(=O)O)NC1=O)[C@@H](C)O [compound 612] (Ac-LTF[R8]EYWA[Cit]L[S5]AAAAA[dA]-NH2; staple 4-11) | – | –
< 10 | 10 to 100 | CC(=O)N[C@@H](CC(C)C)C(=O)N[C@H](C(=O)N[C@@H](Cc1ccccc1)C(=O)N[C@]1(C)CCCCCCC=CCCC[C@@](C)(C(=O)N[C@@H](C)C(=O)N[C@@H](C)C(=O)N[C@@H](C)C(=O)N[C@@H](C)C(=O)N[C@@H](C)C(=O)N[C@H](C)C(N)=O)NC(=O)[C@H](CC(C)C)NC(=O)[C@H](Cc2c[nH]cn2)NC(=O)[C@H](C)NC(=O)[C@H](Cc2c[nH]c3ccccc23)NC(=O)[C@H](Cc2ccc(O)cc2)NC(=O)[C@H](CCC(=O)O)NC1=O)[C@@H](C)O [compound 613] (Ac-LTF[R8]EYWAHL[S5]AAAAA[dA]-NH2; staple 4-11) | – | –
